# According to paper PMC9863987, “Identification of Aryl Polyamines Derivatives as Anti-Trypanosoma cruzi Agents Targeting Iron Superoxide Dismutase” (Pharmaceutics, 2022):
# Legend:
# Vero cells = test: Cytotoxicity test on mammalian Vero cells (resazurin); type: cell-based; conditions: Chlorocebus sabaeus, 48 h treatment + 24 h resazurin, mean of three ± SD, read-out: Toxicity IC50 Vero Cell
# Protocol: Cytotoxicity against mammalian Vero cells (EACC No. 84113001) was tested as previously reported. In brief, 1.25 × 10^4 Vero cells·mL^−1, cultured at 37 °C, were treated by adding the compounds in serial dilutions from 400 to 1 µM in 96-well plates (200 µL·well^−1) for 48 h. BZN and untreated controls were also included in triplicate. Later, 20 μL of resazurin sodium salt (Sigma-Aldrich) was added, and the plates were incubated for another 24 h. Finally, cell viability was determined following the same procedure as described to assess the trypanocidal activity in the epimastigotes.
# T. cruzi Arequipa strain = test: Nested amastigotes detection by PCR in nine target organs/tissues of infected BALB/c mice; type: in vivo, Trypanosoma cruzi; conditions: oral 20 mg/Kg/day for 5 days
# Protocol: Infection was carried out by intraperitoneal inoculation of 5 × 10^5 BTs of T. cruzi Arequipa strain per mouse in 0.2 mL PBS [26]. The infection was monitored and on the 10th day post-infection (dpi), when BTs were visible in the bloodstream, the infection was confirmed.
# Mice were divided into four groups (n = 3 per group): 0, negative control group (uninfected and untreated mice); I, positive control group (infected and untreated mice); II, BZN group (mice infected and treated with BZN); III, 15 group (mice infected and treated with 15).
# The treatment for mice treated in the acute and chronic CD began when the infection was confirmed (10th dpi) and was stablished that the animals had entered the chronic CD (75th dpi), respectively (Scheme 1). Compound 15 and BZN were orally administered for 5 consecutive days at a dose of 20 mg·Kg^−1·day^−1.
# After CP-induced immunosuppression, the mice were euthanised using CO2 by exsanguination via cardiac puncture, and blood was collected. Then, 9 target organs/tissues were harvested: adipose, bone marrow, brain, oesophagus, heart, lung, muscle, spleen, and stomach. These organs/tissues were perfused with pre-warmed PBS to avoid contamination with BTs, and stored at −80 °C. In addition, spleens were weighed to assess splenomegaly.
# DNA extraction of the target organs/tissues was performed using Wizard® Genomic DNA Purification Kit. DNA was subjected to amplification by PCR based on the sequence of the T. cruzi splice leader (SL) intergenic region using two published primers (TC and TC1) that allow the amplification of a 300 base pairs fragment in different biological samples. […]
# [1] = system: T. cruzi Arequipa strain amastigotes; test: Screening against intracellular amastigotes in Vero cells, Arequipa strain (Giemsa counting); type: cell-based, Trypanosoma cruzi
# Protocol: (§1) TINF/CH/1956/Tulahuen, DTU VI [26]—were grown at 28 °C in Gibco® RPMI 1640 Medium supplemented as previously reported, and used for in vitro screening. Trypanocidal activity against amastigotes was tested as previously reported. In brief, bloodstream trypomastigotes (BTs), obtained by cardiac puncture from infected BALB/c mice, were used to infect 1 × 10^4 Vero cells·well^−1 in 24-well plates with rounded coverslips at a multiplicity of infection (MOI) ratio of 10:1. After 24 h of infection, non-internalized trypomastigotes were washed and the infected cells were treated by adding the compounds in serial dilutions from 50 to 0.5 µM in […] for 72 h. BZN and untreated growth controls were also included in triplicate. Later, the number of amastigotes and infected cells were determined in Giemsa stained preparations by analysing 500 host cells randomly distributed in microscopic fields. The trypanocidal activity was expressed as the IC50 using GraphPad Prism 6 software (version 6.07).
# [2] = system: Trypanosoma cruzi epimastigotes; test: Excreted metabolites by 1H NMR; type: cell-based; conditions: epimastigotes at IC25 concentration, 72 h; succinate and pyruvate most increased
# Protocol: 5 × 10^5 mL^−1 epimastigotes culture medium were treated by adding the compounds at IC25 concentrations in 25 cm^2 cell culture flasks for 72 h. Untreated controls were also included in triplicate. Cultures were then centrifuged and filtered, and the metabolites of the supernatants were measured by ^1H NMR (VARIAN DIRECT DRIVE 500 MHz […]) with AutoX probe, D2O as solvent and 2,2-dimethyl-2-silapentane-5-sulphonate as the reference signal. Analyses were conducted as previously reported.
# [3] = system: T. cruzi SN3 strain amastigotes; test: Screening against intracellular amastigotes in Vero cells, SN3 strain (Giemsa counting); type: cell-based, Trypanosoma cruzi
# Protocol: as §1
# [4] = IC50 Vero cells/IC50 amastigotes
# [5] = Trypanosoma cruzi, amastigotes in Vero cells, 72 h, mean of three ± SD
compound,measurement,setting,value
c1cc2nc(c1)CNCCN(CCNCc1ccc3ccc4ccc(CNCCN5CCNCc6cccc(n6)CNCC5)nc4c3n1)CCNC2 [Compound 15],CC50,Vero cells,655 ± 51.9 µM
same,"clearance of nested parasites in target organs/tissues (parasite-free organs/tissues, PCR)",T. cruzi Arequipa strain; treatment in the acute infection,67%
same,"clearance of nested parasites in target organs/tissues (parasite-free organs/tissues, PCR)",T. cruzi Arequipa strain; treatment in the chronic infection,89%
same,Selectivity Index T. cruzi Arequipa Strain A,[1]; [4],262.0
same,IC50,[1]; [5],2.5 ± 0.3 µM
same,excretion of catabolites compared with untreated parasites,[2],notably increased
same,Selectivity Index T. cruzi SN3 Strain A,[3]; [4],58.0
same,IC50,[3]; [5],11.3 ± 0.9 µM
